We go through one compound from US6387849B1, “Herbicidal hydroximic acid derivatives” (BASF Aktiengesellschaft, priority 1997, dated 2002).

A word on the melting point: it is the temperature, or range, at which the solid turns liquid. `CO/N=C(\OC)c1cc(-n2c(=O)cc(C(F)(F)F)n(C)c2=O)c(F)cc1Cl` [Compound 4.01, 3-[2-fluoro-4-chloro-5-methoxyimino-(methoxy)methylphenyl]-2,4-dioxo-1-methyl-6-trifluoromethyl-1,2,3,4-tetrahydropyrimidine] showed a melting point of 122 to 124 °C.
